This assay relates to SdPT. In words: HPLC prenylation assay, yeast microsomes. It is filed as biochemical, Saposhnikovia divaricata. Particulars: saturating DMAPP and MgCl2; optimum pH 10.0, 45 °C.

In publication PMC11961743 (Nature Communications, 2025) one finds Km data, which are given here for one compound.

In general, Km refers to the concentration of substrate that gives half-maximal velocity.

Each structure is given as a SMILES string.

Consider `Cc1cc(=O)c2c(O)cc(O)cc2o1` [compound 2, noreugenin], for which the Km was 29.1 µM.
